The values below come from PMC11245519, “Ubiquitous purine sensor modulates diverse signal transduction pathways in bacteria” (Nature Communications, 2024).

In one experiment the target is R6 (WP_185834821-LBD) (Vibrio cholerae, UniProt Q9KPY8). Nature of the experiment: Thermal shift assay of the R6 LBD. It counts as binding. The following applies: change in Tm, threshold 2 °C.
Another experiment relates to R11 (WP_162024566-LBD). Nature of the experiment: Microcalorimetric titration (ITC) of the R11 LBD with ligands. Type of experiment: binding, Lentimonas sp. CC4. The following applies: 25 °C, pH 7.0.
A further experiment has as its system R10 (WP_110129388-LBD). Type of experiment: binding, Coraliomargarita sinensis. The following applies: change in Tm, threshold 2 °C; cells left empty in Table 3.
The test system of another experiment is R4 (WP_199478134-LBD). Nature of the experiment: Thermal shift assay of the R4 LBD. It counts as binding, Marinomonas spartinae. Conditions: change in Tm, threshold 2 °C.
The target in a further experiment is R15 (WP_207952809-LBD) (Paenibacillus agricola, UniProt A0ABX0IZG8). Nature of the experiment: Microcalorimetric titration (ITC) of the R15 LBD with ligands. It counts as binding, Paenibacillus sp. S3N08. The following applies: 25 °C, pH 7.0.
Sequence of R15 (WP_207952809-LBD) (A0ABX0IZG8 entry or part of it): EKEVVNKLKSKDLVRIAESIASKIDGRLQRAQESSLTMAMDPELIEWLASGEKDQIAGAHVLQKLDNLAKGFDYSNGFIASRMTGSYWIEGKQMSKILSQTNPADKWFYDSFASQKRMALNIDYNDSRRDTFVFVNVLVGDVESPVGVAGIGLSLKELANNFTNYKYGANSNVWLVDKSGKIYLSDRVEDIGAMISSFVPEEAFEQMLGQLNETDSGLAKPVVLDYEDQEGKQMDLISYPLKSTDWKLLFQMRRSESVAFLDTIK
A further experiment has as its system R5 (WP_131005693-LBD). Nature of the experiment: Microcalorimetric titration (ITC) of the R5 LBD with ligands. It counts as binding, Clostridioides difficile. Conditions: 25 °C, pH 7.0.
In the next experiment the target is R14 (WP_021170906-LBD) (Sporomusa ovata, UniProt A0A0U1L1T7). Nature of the experiment: Thermal shift assay of the R14 LBD. It counts as binding. Conditions: change in Tm, threshold 2 °C.
Sequence of R14 (WP_021170906-LBD) (A0A0U1L1T7 entry or part of it): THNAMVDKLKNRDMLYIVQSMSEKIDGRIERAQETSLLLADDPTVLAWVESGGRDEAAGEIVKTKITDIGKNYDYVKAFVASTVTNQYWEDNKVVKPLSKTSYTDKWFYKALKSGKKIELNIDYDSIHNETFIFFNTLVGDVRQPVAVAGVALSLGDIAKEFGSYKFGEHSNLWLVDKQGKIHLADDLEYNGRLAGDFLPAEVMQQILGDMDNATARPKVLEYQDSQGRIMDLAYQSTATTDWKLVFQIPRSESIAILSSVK
The next experiment addresses R1 (WP_219614703-LBD) (Aeromonas salmonicida, UniProt T0PLV6). It counts as binding. The following applies: change in Tm, threshold 2 °C.
Another experiment deals with R13 (WP_167859577-LBD). Type of experiment: binding, Paenibacillus cymbidii. The following applies: change in Tm, threshold 2 °C; 2 mM ligand (Supplementary Fig. 7).

As for `O=c1[nH]c(=O)c2[nH]c(=O)[nH]c2[nH]1` [Uric acid], at R6 (WP_185834821-LBD), the “Binding in thermal shift assay, R6” value is “Nts^b (no binding observed in thermal shift assays, i.e., compounds caused changes in the midpoint of protein unfolding (Tm) of less than 2 °C)”. Moreover, the “Binding in microcalorimetric titration, R11” value with R11 (WP_162024566-LBD) was “Nb^a”. Further, the “Binding in thermal shift assay, R10 (Supplementary Table 3)” value in the experiment on R10 (WP_110129388-LBD) is reported as “Nts (No binding observed in thermal shift assays, i.e. compounds caused changes in the midpoint of protein unfolding (Tm) of less than 2 ºC)”. In addition, in the experiment on R4 (WP_199478134-LBD), the “Binding in thermal shift assay, R4” value was “Nts^b (no binding observed in thermal shift assays, i.e., compounds caused changes in the midpoint of protein unfolding (Tm) of less than 2 °C)”. Further, the “Binding in microcalorimetric titration, R15” value at R15 (WP_207952809-LBD) was “Nb^a”. Besides, the “Binding in microcalorimetric titration, R5” value in the experiment on R5 (WP_131005693-LBD) is “Nb^a”. The “Binding in thermal shift assay, R14” value at R14 (WP_021170906-LBD) was “Nts^b (no binding observed in thermal shift assays, i.e., compounds caused changes in the midpoint of protein unfolding (Tm) of less than 2 °C)”. The “Binding in thermal shift assay, R1” value on R1 (WP_219614703-LBD) was “Nts^b (no binding observed in thermal shift assays, i.e., compounds caused changes in the midpoint of protein unfolding (Tm) of less than 2 °C)”. Besides, in the experiment with R13 (WP_167859577-LBD), the “Binding in thermal shift assay, R13” value is “Nts^b (no binding observed in thermal shift assays, i.e., compounds caused changes in the midpoint of protein unfolding (Tm) of less than 2 °C)”.
